# Reference: ChEMBL document CHEMBL1201862, “PubChem BioAssay data set” (2004)
#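 Exposure lasted 48 hours, with cells grown in 96-well plates and compounds tested at five concentrations. GI50 marks 50% less growth.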 Activity calls are given as the source filed them. Cut-off read from the data, not from the text of the source: active = GI50 up to about 1.1 µM and inactive = higher.
# Key:
# Test in all cases: inhibition of tumour cell growth, NCI panel, 48 h
# CAKI-1 = test system: CAKI-1
# OVCAR-8 = test system: OVCAR-8
# HOP-18 = test system: HOP-18
# Malme-3M = test system: Malme-3M
# RXF 393 = test system: RXF 393
# SNB-19 = test system: SNB-19
# HCT-116 = test system: HCT-116
# M14 = test system: M14
# A498 = test system: A498
# NCI-H23 = test system: NCI-H23
# SK-OV-3 = test system: SK-OV-3
# SK-MEL-28 = test system: SK-MEL-28
# A549 = test system: A549
# HOP-62 = test system: HOP-62
# SNB-75 = test system: SNB-75
# DMS-273 = test system: DMS-273
# UO-31 = test system: UO-31
# 786-0 = test system: 786-0
# SF-539 = test system: SF-539
# DMS-114 = test system: DMS-114
# OVCAR-4 = test system: OVCAR-4
# UACC-257 = test system: UACC-257
# DLD-1 = test system: DLD-1
# U-251 = test system: U-251
# SK-MEL-2 = test system: SK-MEL-2
# SN12C = test system: SN12C
# NCI-H460 = test system: NCI-H460
# IGROV-1 = test system: IGROV-1
# KM12 = test system: KM12
# SF-295 = test system: SF-295
# MOLT-4 = test system: MOLT-4
# LXFL 529 = test system: LXFL 529
# ACHN = test system: ACHN
# SK-MEL-5 = test system: SK-MEL-5
# XF498 = test system: XF498
# HT-29 = test system: HT-29
# UACC-62 = test system: UACC-62
# OVCAR-5 = test system: OVCAR-5
# RXF 631 = test system: RXF 631
# LOX IMVI = test system: LOX IMVI
# K562 = test system: K562
# SF-268 = test system: SF-268
# SW-620 = test system: SW-620
# NCI-H522 = test system: NCI-H522
# COLO 205 = test system: COLO 205
# HCT-15 = test system: HCT-15
# M19-MEL = test system: M19-MEL
# HOP-92 = test system: HOP-92
# SNB-78 = test system: SNB-78
# EKVX = test system: EKVX
# RPMI-8226 = test system: RPMI-8226
# HL-60 = test system: HL-60
# OVCAR-3 = test system: OVCAR-3
# CCRF-CEM = test system: CCRF-CEM
# TK-10 = test system: TK-10
# HCC 2998 = test system: HCC 2998
# SR = test system: SR
# NCI-H226 = test system: NCI-H226
smiles,measurement,setting,value
O=C1NC2C(O)CCCCC2C12CCCCC2 (centres undefined),GI50,CAKI-1,> 100 µM (inactive)
same,GI50,OVCAR-8,> 100 µM (inactive)
same,GI50,HOP-18,> 100 µM (inactive)
same,GI50,Malme-3M,> 100 µM (inactive)
same,GI50,RXF 393,> 100 µM (inactive)
same,GI50,SNB-19,> 100 µM (inactive)
same,GI50,HCT-116,> 100 µM (inactive)
same,GI50,M14,> 100 µM (inactive)
same,GI50,A498,> 100 µM (inactive)
same,GI50,NCI-H23,> 100 µM (inactive)
same,GI50,SK-OV-3,> 100 µM (inactive)
same,GI50,SK-MEL-28,> 100 µM (inactive)
same,GI50,A549,> 100 µM (inactive)
same,GI50,HOP-62,> 100 µM (inactive)
same,GI50,SNB-75,> 100 µM (inactive)
same,GI50,DMS-273,> 100 µM (inactive)
same,GI50,UO-31,> 100 µM (inactive)
same,GI50,786-0,> 100 µM (inactive)
same,GI50,SF-539,> 100 µM (inactive)
same,GI50,DMS-114,> 100 µM (inactive)
same,GI50,OVCAR-4,> 100 µM (inactive)
same,GI50,UACC-257,> 100 µM (inactive)
same,GI50,DLD-1,> 100 µM (inactive)
same,GI50,U-251,> 100 µM (inactive)
same,GI50,SK-MEL-2,> 100 µM (inactive)
same,GI50,SN12C,> 100 µM (inactive)
same,GI50,NCI-H460,> 100 µM (inactive)
same,GI50,IGROV-1,> 100 µM (inactive)
same,GI50,KM12,> 100 µM (inactive)
same,GI50,SF-295,> 100 µM (inactive)
same,GI50,MOLT-4,> 100 µM (inactive)
same,GI50,LXFL 529,> 100 µM (inactive)
same,GI50,ACHN,> 100 µM (inactive)
same,GI50,SK-MEL-5,> 100 µM (inactive)
same,GI50,XF498,> 100 µM (inactive)
same,GI50,HT-29,> 100 µM (inactive)
same,GI50,UACC-62,> 100 µM (inactive)
same,GI50,OVCAR-5,> 100 µM (inactive)
same,GI50,RXF 631,> 100 µM (inactive)
same,GI50,LOX IMVI,> 100 µM (inactive)
same,GI50,K562,> 100 µM (inactive)
same,GI50,SF-268,> 100 µM (inactive)
same,GI50,SW-620,> 100 µM (inactive)
same,GI50,NCI-H522,> 100 µM (inactive)
same,GI50,COLO 205,> 100 µM (inactive)
same,GI50,HCT-15,> 100 µM
same,GI50,M19-MEL,> 100 µM (inactive)
same,GI50,HOP-92,> 100 µM (inactive)
same,GI50,SNB-78,> 100 µM (inactive)
same,GI50,EKVX,> 100 µM (inactive)
same,GI50,RPMI-8226,> 100 µM (inactive)
same,GI50,HL-60,> 100 µM (inactive)
same,GI50,OVCAR-3,> 100 µM (inactive)
CCC1CN2CCc3cc(OC)c(OC)cc3C2CC1CC1c2cc(OC)c(OC)cc2CCN1C(=O)C1CCCN1 (centres undefined),GI50,CAKI-1,6.44 µM (inactive)
same,GI50,OVCAR-8,38.8 µM (inactive)
same,GI50,CCRF-CEM,26.1 µM (inactive)
same,GI50,HOP-18,33.7 µM (inactive)
same,GI50,Malme-3M,21.4 µM (inactive)
same,GI50,TK-10,45.4 µM (inactive)
same,GI50,RXF 393,33.5 µM (inactive)
same,GI50,SNB-19,14.9 µM (inactive)
same,GI50,HCT-116,19.5 µM (inactive)
same,GI50,M14,14.5 µM (inactive)
same,GI50,A498,28.6 µM (inactive)
same,GI50,NCI-H23,32.5 µM (inactive)
same,GI50,SK-OV-3,29.4 µM (inactive)
same,GI50,SK-MEL-28,18.8 µM (inactive)
same,GI50,A549,26.4 µM (inactive)
same,GI50,HOP-62,32.5 µM (inactive)
same,GI50,SNB-75,26 µM (inactive)
same,GI50,DMS-273,35.3 µM (inactive)
same,GI50,UO-31,21.5 µM (inactive)
same,GI50,786-0,17.1 µM (inactive)
same,GI50,SF-539,20.3 µM (inactive)
same,GI50,OVCAR-4,25.5 µM (inactive)
same,GI50,UACC-257,17.2 µM (inactive)
same,GI50,DLD-1,30.1 µM (inactive)
same,GI50,U-251,23.9 µM (inactive)
same,GI50,SK-MEL-2,27.8 µM (inactive)
same,GI50,SN12C,37.5 µM (inactive)
same,GI50,NCI-H460,25.9 µM (inactive)
same,GI50,IGROV-1,28.4 µM (inactive)
same,GI50,KM12,35.2 µM (inactive)
same,GI50,SF-295,41 µM (inactive)
same,GI50,MOLT-4,32.4 µM (inactive)
same,GI50,LXFL 529,24.5 µM (inactive)
same,GI50,ACHN,28.7 µM (inactive)
same,GI50,HCC 2998,23.9 µM (inactive)
same,GI50,SR,19.1 µM (inactive)
same,GI50,SK-MEL-5,17.3 µM (inactive)
same,GI50,XF498,18.8 µM (inactive)
same,GI50,HT-29,27.4 µM (inactive)
same,GI50,OVCAR-5,53 µM (inactive)
same,GI50,RXF 631,28.7 µM (inactive)
same,GI50,LOX IMVI,24.9 µM (inactive)
same,GI50,K562,20.5 µM (inactive)
same,GI50,SF-268,32.8 µM (inactive)
same,GI50,SW-620,28.8 µM (inactive)
same,GI50,NCI-H522,16.3 µM (inactive)
same,GI50,COLO 205,13 µM (inactive)
same,GI50,HCT-15,31.7 µM
same,GI50,M19-MEL,19.2 µM (inactive)
same,GI50,HOP-92,28.7 µM (inactive)
same,GI50,SNB-78,47.4 µM (inactive)
same,GI50,EKVX,36.6 µM (inactive)
same,GI50,NCI-H226,31.3 µM (inactive)
same,GI50,RPMI-8226,50.5 µM (inactive)
same,GI50,HL-60,19.3 µM (inactive)
same,GI50,OVCAR-3,27.4 µM (inactive)
